Structures are written as SMILES.

As a reminder, the IC50 is the concentration that gives 50% inhibition.

In the assay the target is Human Factor XIIa (Homo sapiens (Human), UniProt P00748). Description: Determination of FXIIa inhibition (fluorogenic substrate H-DPro-Phe-Arg-AFC, IC50 assay). In kind it is biochemical. Conditions: substrate H-DPro-Phe-Arg-AFC at Km, 25° C.; class scale A-G. The procedure: Determination of FXIIa Inhibition
Chain of Human Factor XIIa (P00748 373-615): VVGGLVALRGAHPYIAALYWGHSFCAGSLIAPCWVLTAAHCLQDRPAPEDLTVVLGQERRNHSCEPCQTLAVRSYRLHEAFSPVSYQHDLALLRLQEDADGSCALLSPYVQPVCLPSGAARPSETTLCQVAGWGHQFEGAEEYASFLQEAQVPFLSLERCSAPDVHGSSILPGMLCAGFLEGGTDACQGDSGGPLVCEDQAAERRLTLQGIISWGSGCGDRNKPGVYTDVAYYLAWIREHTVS
In vitro inhibition of Factor XIIa was determined using an IC50 assay based on standard literature methods (see e.g Baeriswyl et al., ACS Chem. Biol., 2015, 10 (8) 1861; Bouckaert et al., European Journal of Medicinal Chemistry 110 (2016) 181). Human Factor XIIa (Enzyme Research Laboratories) was incubated at 25° C. with the fluorogenic substrate H-DPro-Phe-Arg-AFC (Peptide Protein Science) and various concentrations of the test compound. Protease activity was measured by monitoring the accumulation of liberated fluorescence from the substrate over 5 min at 25° C. The linear rate of fluorescence increase per minute was expressed as percentage (%) activity. The Km for the cleavage of the substrate by FXIIa was determined by standard transformation of the Michaelis-Menten equation. The compound inhibitor assays were performed at substrate Km concentration. IC50 values were calculated as the concentration of inhibitor giving 50% inhibition (IC50) of the uninhibited enzyme activity (100%).
In the case of `Nc1nccc2cc(NCc3ccc(OCC4CCn5ccnc5C4)nc3)ccc12` (single isomer, unassigned) [Example 1023, 6-N-({6-[(7R*)-5H,6H,7H,8H-imidazo[1,2-a]pyridin-7-ylmethoxy]pyridin-3-yl}methyl)isoquinoline-1,6-diamine], the IC50 lay in the range of 100 to 300 nM. In the case of `CN1CCC(COc2cc(CNc3ccc4c(N)ncnc4c3)ccn2)CC1` [Example 4263, 7-N-({2-[(1-methylpiperidin-4-yl)methoxy]pyridin-4-yl}methyl)quinazoline-4,7-diamine] it was 10000 to 40000 nM; in that of `Cc1cc(N2CCn3c(nnc3C(F)(F)F)C2C)cnc1CNc1cccc2c(N)nccc12` (single isomer, unassigned) [Example 1346, (S*)-N5-((3-methyl-5-(8-methyl-3-(trifluoromethyl)-5,6-dihydro-[1,2,4]triazolo[4,3-a]pyrazin-7(8H)-yl)pyridin-2-yl)methyl)isoquinoline-1,5-diamine], 1000 to 3000 nM. In the case of `CCc1cc2c(NCc3ccc(NCC4CCN(C)CC4)nc3)ccnc2[nH]1` [Example 1239, 2-ethyl-N-((6-(((1-methylpiperidin-4-yl)methyl)amino)pyridin-3-yl)methyl)-1H-pyrrolo[2,3-b]pyridin-4-amine] it was 10000 to 40000 nM; in that of `CN1CCC(CCc2cccc(CNc3ccc4c(N)nccc4c3)c2)CC1` [Example 4410, 6-N-({3-[2-(1-methylpiperidin-4-yl)ethyl]phenyl}methyl)isoquinoline-1,6-diamine], 300 to 1000 nM. In the case of `CN1CCC(Cn2cc(CNc3ccc4c(N)nccc4c3)cn2)CC1` [Example 3253, N6-((1-((1-methylpiperidin-4-yl)methyl)-1H-pyrazol-4-yl)methyl)isoquinoline-1,6-diamine] it was 1000 to 3000 nM; in that of `Cc1cc(N2CCn3c(nnc3C(F)(F)F)C2)ncc1CNc1ccc2nccn2c1` [Example 1322, N-((4-methyl-6-(3-(trifluoromethyl)-5,6-dihydro-[1,2,4]triazolo[4,3-a]pyrazin-7(8H)-yl)pyridin-3-yl)methyl)imidazo[1,2-a]pyridin-6-amine], 10000 to 40000 nM; in that of `CN1CCC(CNc2ccc(CNc3cc(Cl)cc4[nH]ccc34)cn2)CC1` [Example 1241, 6-chloro-N-((6-(((1-methylpiperidin-4-yl)methyl)amino)pyridin-3-yl)methyl)-1H-indol-4-amine], 10000 to 40000 nM. The molecule `Nc1nccc2cc(NCc3ccc(OCc4ccncc4)nc3)ccc12` [Example 1014, 6-N-{[6-(pyridin-4-ylmethoxy)pyridin-3-yl]methyl}isoquinoline-1,6-diamine] had an IC50 of 3000 to 10000 nM.

`CC(C)(O)CN1CCC(COc2ccc(CNc3ccc4c(N)nccc4c3)cn2)CC1` [Example 1017, 1-(4-(((5-(((1-aminoisoquinolin-6-yl)amino)methyl)pyridin-2-yl)oxy)methyl)piperidin-1-yl)-2-methylpropan-2-ol]: the IC50 lay in the range of 300 to 1000 nM. As for `Cc1cc(N2CCn3c(nnc3C(F)(F)F)C2C)ncc1CNc1ccnc2[nH]c(Cl)cc12` (single isomer, unassigned) [Example 1316, (S*)-2-Chloro-N-((4-methyl-6-(8-methyl-3-(trifluoromethyl)-5,6-dihydro-[1,2,4]triazolo[4,3-a]pyrazin-7(8H)-yl)pyridin-3-yl)methyl)-1H-pyrrolo[2,3-b]pyridin-4-amine], the figure is 10 to 100 nM.

Regarding `COCC1c2nnc(C(F)(F)F)n2CCN1c1cc(C)c(CNc2cccc3c(N)nccc23)cn1` (single isomer, unassigned) [Example 1344, (R*)-N5-((6-(8-(methoxymethyl)-3-(trifluoromethyl)-5,6-dihydro-[1,2,4]triazolo[4,3-a]pyrazin-7(8H)-yl)-4-methylpyridin-3-yl)methyl)isoquinoline-1,5-diamine], the IC50 lay in the range of 10 to 100 nM. In the case of `CN1CCC(F)(COc2cc(CNc3ccc4c(N)nccc4c3)ccn2)CC1` [Example 4415, 6-N-({2-[(4-fluoro-1-methylpiperidin-4-yl)methoxy]pyridin-4-yl}methyl)isoquinoline-1,6-diamine] it was 300 to 1000 nM; in that of `Nc1nccc2c(NCc3ccc(N4CCn5c(nnc5C(F)(F)F)C4)nc3)nccc12` [Example 1318, N1-((6-(3-(trifluoromethyl)-5,6-dihydro-[1,2,4]triazolo[4,3-a]pyrazin-7(8H)-yl)pyridin-3-yl)methyl)-2,6-naphthyridine-1,5-diamine], 10000 to 40000 nM; in that of `CN1CCC(COc2ccc(CNc3ccc4c(N)ncnc4c3)cn2)CC1` [Example 1021, N7-((6-((1-methylpiperidin-4-yl)methoxy)pyridin-3-yl)methyl)quinazoline-4,7-diamine], 10000 to 40000 nM. Turning to `CN1CCN(CCc2ccc(CNc3ccc4c(N)nccc4c3)cc2)CC1` [Example 2180, 6-N-({4-[2-(4-methylpiperazin-1-yl)ethyl]phenyl}methyl)isoquinoline-1,6-diamine], the 50% inhibitory concentration (IC50) is 300 to 1000 nM. As for `Cn1ccnc1COc1cc(CNc2cccc3c(N)nccc23)ccn1` [Example 4423, N5-((2-((1-methyl-1H-imidazol-2-yl)methoxy)pyridin-4-yl)methyl)isoquinoline-1,5-diamine], the figure is 3000 to 10000 nM; as for `Cc1cc(N2CCn3c(nnc3C(F)(F)F)C2C)cnc1CNc1cccc2c(N)nccc12` (single isomer, unassigned) [Example 1345, (R*)-N5-((3-methyl-5-(8-methyl-3-(trifluoromethyl)-5,6-dihydro-[1,2,4]triazolo[4,3-a]pyrazin-7(8H)-yl)pyridin-2-yl)methyl)isoquinoline-1,5-diamine], 10 to 100 nM; as for `Nc1nccc2c(NCc3ccc(N4CCn5c(nnc5C(F)(F)F)C4)cc3F)cccc12` [Example 2256, N5-(2-Fluoro-4-(3-(trifluoromethyl)-5,6-dihydro-[1,2,4]triazolo[4,3-a]pyrazin-7(8H)-yl)benzyl)isoquinoline-1,5-diamine], 10 to 100 nM. As for `CN1CCC(COc2cc(CNc3cnc4[nH]cc(Cl)c4c3)ccn2)CC1` [Example 4264, 3-chloro-N-((2-((1-methylpiperidin-4-yl)methoxy)pyridin-4-yl)methyl)-1H-pyrrolo[2,3-b]pyridin-5-amine], the figure is 10000 to 40000 nM; as for `CN1CCC(CCn2cc(CNc3cccc4c(N)nccc34)cn2)CC1` [Example 3255, N5-((1-(2-(1-methylpiperidin-4-yl)ethyl)-1H-pyrazol-4-yl)methyl)isoquinoline-1,5-diamine], 300 to 1000 nM.

Turning to `Nc1nccc2cc(NCc3ccc(OCC4CCn5cc(C(F)(F)F)nc5C4)nc3)ccc12` (stereo not shown) [Example 1028, N6-((6-((2-(trifluoromethyl)-5,6,7,8-tetrahydroimidazo[1,2-a]pyridin-7-yl)methoxy)pyridin-3-yl)methyl)isoquinoline-1,6-diamine], the IC50 fell in the range of 1000 to 3000 nM. In the case of `Nc1nccc2c(NCc3cnc(N4CCn5c(nnc5C(F)(F)F)C4)c(CO)c3)cccc12` [Example 1335, (5-(((1-aminoisoquinolin-5-yl)amino)methyl)-2-(3-(trifluoromethyl)-5,6-dihydro-[1,2,4]triazolo[4,3-a]pyrazin-7(8H)-yl)pyridin-3-yl)methanol] it was 10000 to 40000 nM; in that of `Nc1nccc2c(NS(=O)(=O)c3ccc(N4CCn5c(nnc5C(F)(F)F)C4)nc3)cccc12` [Example 1337, N-(1-aminoisoquinolin-5-yl)-6-(3-(trifluoromethyl)-5,6-dihydro-[1,2,4]triazolo[4,3-a]pyrazin-7(8H)-yl)pyridine-3-sulfonamide], 300 to 1000 nM; in that of `Nc1nccc2cc(NCc3ccc(OCC4CCNCC4)nc3)ccc12` [Example 1016, 6-N-{[6-(piperidin-4-ylmethoxy)pyridin-3-yl]methyl}isoquinoline-1,6-diamine], 100 to 300 nM. In the case of `Cc1cc(N2CCn3c(nnc3C(F)(F)F)C2)ncc1CNc1ccnc2c1CCN2` [Example 1339, N-((4-methyl-6-(3-(trifluoromethyl)-5,6-dihydro-[1,2,4]triazolo[4,3-a]pyrazin-7(8H)-yl)pyridin-3-yl)methyl)-2,3-dihydro-1H-pyrrolo[2,3-b]pyridin-4-amine] it was 10000 to 40000 nM; in that of `CC1c2nnc(C(F)(F)F)n2CCN1c1cnc(CNc2cccc3c(N)nccc23)c(F)c1` (stereo not shown) [Example 9008, N5-((3-fluoro-5-(8-methyl-3-(trifluoromethyl)-5,6-dihydro-[1,2,4]triazolo[4,3-a]pyrazin-7(8H)-yl)pyridin-2-yl)methyl)isoquinoline-1,5-diamine], 10 to 100 nM; in that of `CN1C[C@@H]2C(COc3cc(CNc4cccc5c(N)nccc45)ccn3)[C@@H]2C1` (stereo partly drawn) [Example 4418, 5-N-[(2-{[(1R,5S)-3-methyl-3-azabicyclo[3.1.0]hexan-6-yl]methoxy}pyridin-4-yl)methyl]isoquinoline-1,5-diamine], 300 to 1000 nM. In the case of `Cn1ccnc1COc1cc(CNc2ccc3c(N)nccc3c2)ccn1` [Example 4422, 6-N-({2-[(1-methylimidazol-2-yl)methoxy]pyridin-4-yl}methyl)isoquinoline-1,6-diamine] it was 3000 to 10000 nM; in that of `CC(Oc1cc(CNc2ccc3c(N)nccc3c2)ccn1)C1CCN(C)CC1` (stereo not shown) [Example 4414, 6-N-({2-[1-(1-methylpiperidin-4-yl)ethoxy]pyridin-4-yl}methyl)isoquinoline-1,6-diamine], 100 to 300 nM. Regarding `CN1C[C@@H]2C(COc3ccc(CNc4ccc5c(N)nccc5c4)cn3)[C@@H]2C1` (stereo partly drawn) [Example 1175, 6-N-[(6-{[(1R,5S,6S)-3-methyl-3-azabicyclo[3.1.0]hexan-6-yl]methoxy}pyridin-3-yl)methyl]isoquinoline-1,6-diamine], the IC50 fell in the range of 300 to 1000 nM.

The values above are taken from US20240059691A1 (KALVISTA PHARMACEUTICALS LIMITED, priority 2020, published 2024).
